Measurements: US20210353626A1, “BETA-ADRENERGIC RECEPTOR ALLOSTERIC MODULATORS” (THE REGENTS OF THE UNIVERSITY OF CALIFORNIA, priority 2018, published 2021)

Key:
β2AR [1] = target: T1, β2AR (Homo sapiens, UniProt P07550); assay: β-arrestin-2 recruitment assay (PathHunter enzyme fragment complementation), norepinephrine-stimulated; assay type: cell-based; conditions: for negative allosteric effect on norepinephrine-stimulated β-arrestin 2 recruitment (in words): analogs tested at 10 μM and 30 μM compared to norepinephrine alone (FIG. 9); for inhibition at 30 µM: arrestin recruitment stimulated by norepinephrine after preincubation with 30 μM of the test compound; for inhibition at 30 µM / inhibition at 10 µM: read-out: attenuation of Emax (maximum efficacy of norepinephrine); for inhibition at 10 µM: arrestin recruitment stimulated by norepinephrine, attenuating effect at 10 μM of the test compound
T1 construct: host or cells: HEK293 cells stably expressing (EA)-β-arrestin-2
T1 sequence (P07550 whole entry, the tested form may be a part): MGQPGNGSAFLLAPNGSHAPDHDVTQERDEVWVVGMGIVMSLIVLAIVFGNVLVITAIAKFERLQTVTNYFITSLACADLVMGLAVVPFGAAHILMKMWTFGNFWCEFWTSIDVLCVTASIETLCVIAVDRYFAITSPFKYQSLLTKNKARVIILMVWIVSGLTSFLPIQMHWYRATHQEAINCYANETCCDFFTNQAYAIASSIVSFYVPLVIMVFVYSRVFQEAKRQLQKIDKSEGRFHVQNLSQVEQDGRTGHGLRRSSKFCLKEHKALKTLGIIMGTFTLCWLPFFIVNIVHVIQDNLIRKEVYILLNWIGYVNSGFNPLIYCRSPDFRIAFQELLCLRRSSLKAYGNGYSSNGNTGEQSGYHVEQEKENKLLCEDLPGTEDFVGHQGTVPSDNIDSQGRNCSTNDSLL
Method: (§1) β-Arrestin-2 Recruitment Assay. Determination of β-arrestin-2 recruitment was performed applying the PathHunter assay (DiscoverX, Birmingham, U.K.) which is based on fragment complementation of β-galactosidase in HEK293 cells stably expressing (EA)-β-arrestin-2 and being transiently transfected with a receptor tagged to the PK fragment. In general, cells were transfected employing Mirus TransIT-293 (peqlab, Erlangen, Germany) and incubated in DMEM/F12 medium (Life Technologies, Darmstadt, Germany) at 37° C. and 5% of CO2. After 24 hrs cells were detached with Versene (Life Technologies) and transferred into 384-well plates (white plate, transparent bottom, Greiner Bio-One, Frickenhausen, Germany) at a density of 5000 cells/well using the medium CP4 Reagent (DiscoverX). After further 24 hrs of incubation test compounds dissolved in PBS were added to the cells at a final volume of 25 μL and incubated at 37° C. for a distinct time which was optimized for each receptor (details are summarized in the supporting information). Determination of β-arrestin-2 recruitment was started by adding detection mix, incubation at room temperature for 60 min and measuring chemoluminescence with a Clariostar plate reader (BMG, Ortenberg, Germany). For measuring allosteric effects the modulator was preincubated with the cells at a distinct concentration for 30 min followed by the addition of reference agonist. Data analysis of functional experiments were performed by normalizing the raw data relative to basal activity (0%) and the maximum effect of the reference agonist (100%). Normalized curves from three to seven individual experiments each done as duplicate were analyzed by non-linear regression applying the algorithms in Prism 6.0 (GraphPad, San Diego, Calif.) to get dose-response curves representing average EC50 and Emax value.
β-Arrestin-2 Recruitment Assay. β-Arrestin-2 recruitment was performed applying the fragment complementation assay PathHunter (DiscoverX) with HEK293 cells stably expressing (EA)-β-arrestin-2. The appropriate receptor was transiently transfected when using a specific pCMV vectors with the PK-tag located at different distances downstream of the C-terminus of the inserted receptor (PK1, PK2 and PK-ARMS2, purchased from DiscoverX, Birmingham, UK). ADRB2-PK encoding the human β2AR was purchased from DiscoverX, while all other vectors with related GPCRs were engineered by inserting the DNA of the appropriate receptor in frame into the different PK constructs further excluding the stop codon. Mutants of the β2AR were done applying polymerase chain reaction with appropriate primers.

[2] = system: other Family A GPCRs (α2AAR, 5-HT1AR, M2AChR, D2longDR, PAR2, NTS1R, μOR, κOR, δOR); assay: β-arrestin-2 recruitment assay, subtype selectivity; assay type: cell-based
Method: as §1
(§2) β-Arrestin-2 Recruitment Assay. β-Arrestin-2 recruitment was performed applying the fragment complementation assay PathHunter (DiscoverX) with HEK293 cells stably expressing (EA)-β-arrestin-2. […]

α1AAR = target: T2, α1AAR (Homo sapiens, UniProt P35348); assay: as above; assay type: cell-based
T2 construct: expressed in transfected cells; host or cells: HEK293 cells stably expressing (EA)-β-arrestin-2
T2 sequence (P35348 1-466): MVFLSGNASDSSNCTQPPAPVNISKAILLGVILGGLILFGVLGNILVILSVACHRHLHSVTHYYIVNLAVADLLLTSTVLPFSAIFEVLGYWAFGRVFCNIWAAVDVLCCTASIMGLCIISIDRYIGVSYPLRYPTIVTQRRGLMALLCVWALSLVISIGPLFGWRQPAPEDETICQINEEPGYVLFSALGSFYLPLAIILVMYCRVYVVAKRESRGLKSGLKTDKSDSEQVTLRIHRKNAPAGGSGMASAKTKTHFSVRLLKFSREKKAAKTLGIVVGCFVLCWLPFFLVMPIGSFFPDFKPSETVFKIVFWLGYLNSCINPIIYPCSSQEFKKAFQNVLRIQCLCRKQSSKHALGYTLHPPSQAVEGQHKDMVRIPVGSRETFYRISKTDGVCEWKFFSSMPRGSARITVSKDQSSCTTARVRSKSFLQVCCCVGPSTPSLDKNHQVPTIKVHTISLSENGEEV
Method: as §1, §2

β1AR = target: T3, β1AR (Mus musculus, UniProt P34971); assay: as above; assay type: cell-based
T3 construct: expressed in transfected cells; host or cells: HEK293 cells stably expressing (EA)-β-arrestin-2
T3 sequence (P34971 whole entry): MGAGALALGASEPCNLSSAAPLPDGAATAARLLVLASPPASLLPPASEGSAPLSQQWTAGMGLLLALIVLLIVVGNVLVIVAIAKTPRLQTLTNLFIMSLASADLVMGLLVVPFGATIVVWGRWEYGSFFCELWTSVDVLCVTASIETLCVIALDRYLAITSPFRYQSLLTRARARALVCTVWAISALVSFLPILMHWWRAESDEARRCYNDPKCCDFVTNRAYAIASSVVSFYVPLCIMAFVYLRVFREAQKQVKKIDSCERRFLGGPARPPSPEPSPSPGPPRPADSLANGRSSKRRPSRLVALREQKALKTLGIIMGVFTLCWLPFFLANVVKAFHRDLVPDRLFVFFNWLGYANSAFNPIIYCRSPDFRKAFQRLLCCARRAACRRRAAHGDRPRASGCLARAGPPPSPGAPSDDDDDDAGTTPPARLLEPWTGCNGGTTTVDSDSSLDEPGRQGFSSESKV
Method: as §1, §2

[3] = system: β2AR E122^3.41 mutants (E122L, E122Q, E122R); assay: Radioligand binding assay with [3H]DHAP, E122 mutants; design: species or system human; conditions: all of the mutants, relative to wild type
Method: Membranes prepared from Sf9 cells infected with baculoviruses expressing β2AR (wt) or E122 mutants in the absence or presence of co-expressed Gs heterotrimer were assessed by radioligand binding with [^3H]DHAP. […] Ki's were determined using Graphpad (Prism, San Diego) using the Kd of [^3H]DHAP specific for β2AR (wt) and each mutant, according to the Cheng-Prusoff equation. Values for high affinity agonist site (Khigh) and low affinity site (Klow) from membranes prepared from β2AR (wt) or mutants co-infected with Gs heterotrimer were determined by non-linear regression fitting (2-site) using Kd values of [^3H]DHAP, as above (Graphpad, San Diego).
Radioligand binding assay. […] Samples were taken at varying time points, filtered and washed as described below to remove free [^3H]formoterol. For [^3H]DHAP saturation isotherms of β2AR and mutants, membranes were incubated with varying concentrations of [^3H]DHAP and filtered as described below. Samples were subject to rapid filtration through GF/B membranes and rinsed with ice cold binding buffer to remove free [^3H]probe. Filter plates were dried before adding Microscint 0 and counting bound [^3H]probe using a Packard TopCount. All data were analyzed using Graphpad (Prism, San Diego Calif.).

β2AR [4] = target: T1, β2AR; assay: cAMP accumulation assay (FRET-Epac sensor); assay type: cell-based
Method: cAMP accumulation assays. Intact cell cAMP accumulation was measured using the FRET-epac sensor in stable HEK293-Epac cells endogenously expressing β2AR or in CHO cells co-transfected with Epac and β2AR or the mutants. Cells were harvested with lifting buffer (20 mM HEPES, pH 7.4, 150 mM NaCl and 0.68 mM EDTA), centrifuged and resuspended in HBSS-HEPES (Hank's Balanced Salt Solution plus 20 mM HEPES, pH 7.4) containing 0-150 μM modulator or vehicle (for a final assay concentration of 0-100 μM). This cell suspension (100 μL) was pipetted into the wells of a 96 well plate (black with clear bottom). After 20 min in the dark at 37° C., 50 μL of HBSS-HEPES buffer at 37° C. containing 1B MX (1 mM final), ascorbic acid (1 mM final), and norepinephrine or epinephrine (0-100 μM final) was added. The CFP/YFP ratio of the Epac-cAMP FRET sensor was immediately measured for 15 min using wavelengths of 435 nm for excitation with 485 nm and 530 nm for emission using a SpectraMax M5 (Molecular Devices).

| SMILES | negative allosteric effect on norepinephrine-stimulated β-arrestin 2 recruitment (in words) (β2AR [1]) | inhibition at 30 µM (β2AR [1]) | other results |
| --- | --- | --- | --- |
| Nc1nc(Nc2ccccc2)nc2cc(Br)ccc12 [AS436, 7-Bromo-N^2-phenylquinazoline-2,4-diamine] | reduced allosteric modulation | 31 to 70% | – |
| Nc1nc(Nc2ccccc2)nc2cccc(Cl)c12 [AS098, 5-Chloro-N^2-phenylquinazoline-2,4-diamine] | – | 31 to 70% | – |
| Nc1nc(Nc2ccccc2)nc2c(Cl)cccc12 [AS328, 8-Chloro-N^2-phenylquinazoline-2,4-diamine] | – | 31 to 70% | – |
| Nc1nc(Nc2ccc(S(N)(=O)=O)cc2)nc2ccccc12 [AS197, 4-((4-Aminoquinazolin-2-yl)amino)benzenesulfonamide] | – | < 30% | – |
| COC(=O)c1ccc(Nc2nc(N)c3c(Cl)cccc3n2)cc1 [AS228, Methyl 4-((4-amino-5-chloroquinazolin-2-yl)amino)benzoate] | – | < 30% | – |
| COC(=O)c1ccc(Nc2nc(N)c3c(F)cccc3n2)c(O)c1 [AS202, Methyl 4-((4-amino-5-fluoroquinazolin-2-yl)amino)-3-hydroxybenzoate] | – | < 30% | – |
| Nc1nc(Nc2ccccc2)nc2c(Br)cccc12 [AS241, 8-Bromo-N^2-phenylquinazoline-2,4-diamine] | reduced allosteric modulation | 31 to 70% | – |
| Nc1nc(Nc2ccccc2)nc2ccc(Br)cc12 [AS408, 6-Bromo-N^2-phenylquinazoline-2,4-diamine] | – | – | allosteric activity at the other GPCRs tested [2]: no allosteric activity; allosteric activity at α1AR (α1AAR): weak NAM; potency at β1AR relative to β2AR (β1AR): small reduction in the potency; effect of AS408 on agonist binding affinity at E122 mutants [3]: reduced relative to the wild-type receptor |
| Nc1nc(Nc2ccc3ccccc3c2)nc2ccc(Br)cc12 [DD290, 6-bromo-N2-(naphthalen-2-yl)quinazoline-2,4-diamine] | – | – | inhibition at 10 µM (β2AR [1]): < 30% |
| Nc1nc(Nc2ccccc2)nc2ccc(-c3ccccc3)cc12 [ST240, N^2,6-Diphenylquinazoline-2,4-diamine] | further disruption of the negative allosteric effect | 31 to 70% | – |
| Nc1nc(Nc2ccccc2)nc2cccc(Br)c12 [AS094, 5-Bromo-N^2-phenylquinazoline-2,4-diamine] | reduced allosteric modulation | 31 to 70% | – |
| Nc1nc(Nc2cccc(O)c2)nc2ccccc12 [BRAC1-23] | Reduction of the allosteric effect | – | – |
| CNC(=O)c1ccc(Nc2nc(N)c3ccccc3n2)cc1 [AS198, 4-((4-Aminoquinazolin-2-yl)amino)-N-methylbenzamide] | – | < 30% | – |
| CCCNc1nc(N)c2ccccc2n1 [BRAC1-5] | reduces the negative allosteric effect | – | – |
| COC(=O)c1ccc(Nc2nc(N)c3ccccc3n2)c(O)c1 [JT11, Methyl 4-((4-aminoquinazolin-2-yl)amino)-3-hydroxybenzoate] | – | – | inhibition at 10 µM (β2AR [1]): < 30% |

Continued, in another order:

| negative allosteric effect on norepinephrine-stimulated β-arrestin 2 recruitment (in words) (β2AR [1]) | inhibition at 30 µM (β2AR [1]) | SMILES | other results |
| --- | --- | --- | --- |
| attenuated negative allosteric effect | 31 to 70% | Brc1ccc2nc(Nc3ccccc3)ncc2c1 [DD288, 6-Bromo-/V-phenylquinazolin-2-amine] | – |
| – | < 30% | Nc1nc(Nc2ccccc2CO)nc2ccc(Br)cc12 [DD283, 6-Bromo-N^2-(2-hydroxymethyl)phenylquinazoline-2,4-diamine] | – |
| less potent | < 30% | Nc1nc(Nc2ccccc2)nc2ccc(F)cc12 [DD284, 6-Fluoro-N^2-phenylquinazoline-2,4-diamine] | – |
| activity comparable to Br | 71 to 100% | Nc1nc(Nc2ccccc2)nc2ccc(C(F)(F)F)cc12 [DD293, 6-Trifluoromethyl-N^2-phenylquinazoline-2,4-diamine] | – |
| – | < 30% | Nc1nc(Nc2cccc(CCC(=O)O)c2)nc2ccc(Br)cc12 [DD291, 3-(3-((4-amino-6-bromoquinazolin-2-yl)amino)phenyl)propanoic acid] | – |
| activity comparable to Br | 71 to 100% | Nc1nc(Nc2ccccc2)nc2ccc(Cl)cc12 [DD282, 6-Chloro-N^2-phenylquinazoline-2,4-diamine] | – |
| – | < 30% | Nc1nc(Nc2ccccc2O)nc2cccc(Cl)c12 [JT12, 2-((4-Amino-5-chloroquinazolin-2-yl)amino)phenol] | – |
| weak, negative allosteric regulation | – | Nc1nc(Nc2ccccc2)nc2ccccc12 [BRAC1] | negative allosteric regulation of cAMP accumulation (in words) (β2AR [4]): weak, negative allosteric regulation |
| activity comparable to Br | 71 to 100% | Nc1nc(Nc2ccccc2)nc2ccc(I)cc12 [ST239, 6-Iodo-N^2-phenylquinazoline-2,4-diamine] | – |
| – | < 30% | Nc1nc(Nc2cccc(CCC(=O)OCC(O)CO)c2)nc2ccc(Br)cc12 (stereo not drawn) [DD294, 2,3-dihydroxypropyl-(3-((4-amino-6-bromoquinazolin-2-yl)amino)phenyl)propanoate] | – |
| – | 31 to 70% | CC(C)c1ccc2nc(Nc3ccccc3)nc(N)c2c1 [ST238, 6-Isopropyl-N^2-phenylquinazoline-2,4-diamine] | – |
